Source: ChEMBL document CHEMBL4765380, “Synthesis, structure and anticancer activity of new geldanamycin amine analogs containing C(17)- or C(20)- flexible and rigid arms as well as closed or open ansa-bridges” (Eur J Med Chem, 2020)

Experiments:
[1] = system: SK-BR-3; test: Antiproliferative activity against human SK-BR-3 cells assessed as reduction in cell growth incubated for 72 hrs by SRB assay; type: functional, cell-based; conditions: SK-BR-3, 72 h
[2] = system: SK-OV-3; test: Antiproliferative activity against human SK-OV-3 cells assessed as reduction in cell growth incubated for 72 hrs by SRB assay; type: functional, cell-based; conditions: SK-OV-3, 72 h
[3] = system: PC-3; test: Antiproliferative activity against human PC-3 cells assessed as reduction in cell growth incubated for 72 hrs by SRB assay; type: functional, cell-based; conditions: PC-3, 72 h
[4] = system: U-87 MG; test: Antiproliferative activity against human U-87 MG cells assessed as reduction in cell growth incubated for 72 hrs by SRB assay; type: functional, cell-based, U-87MG ATCC
[5] = system: A549; test: Antiproliferative activity against human A549 cells assessed as reduction in cell growth incubated for 72 hrs by SRB assay; type: functional, cell-based; conditions: A549, 72 h
[6] = Cytotoxicity against human HDF cells assessed as reduction in cell growth incubated for 72 hrs by SRB assay; type: cell-based; conditions: HDFa
[7] = Selectivity index, ratio of IC50 for cytotoxicity against human HDF cells to IC50 for cytotoxicity against human SK-BR-3 cells; type: toxicity, cell-based; conditions: HDF cells versus SK-BR-3 cells, read-out: Ratio IC50
[8] = Selectivity index, ratio of IC50 for cytotoxicity against human HDF cells to IC50 for cytotoxicity against human SK-OV-3 cells
[9] = Selectivity index, ratio of IC50 for cytotoxicity against human HDF cells to IC50 for cytotoxicity against human PC-3 cells; type: toxicity, cell-based; conditions: HDF cells versus PC-3 cells, read-out: Ratio IC50
[10] = Selectivity index, ratio of IC50 for cytotoxicity against human HDF cells to IC50 for cytotoxicity against human U-87 MG cells; type: toxicity, cell-based; conditions: HDF cells versus U-87 MG cells, read-out: Ratio IC50
[11] = Selectivity index, ratio of IC50 for cytotoxicity against human HDF cells to IC50 for cytotoxicity against human A549 cells; type: toxicity, cell-based; conditions: HDF cells versus A549 cells, read-out: Ratio IC50

Row | IC50 [1] | IC50 [2] | IC50 [3] | IC50 [4] | IC50 [5] | SMILES | IC50 [6] | selectivity ratio [7] | Ratio IC50 [8] | selectivity ratio [9] | selectivity ratio [10] | selectivity ratio [11]
1 | 1130 nM | 1110 nM | 1370 nM | 1250 nM | 1050 nM | CO[C@H]1/C=C\C=C(/C)C(=O)NC2=CC(=O)C(NCCO)=C(C[C@@H](C)C[C@H](OC)[C@H](O)[C@@H](C)/C=C(\C)[C@@H]1OC(N)=O)C2=O | 3.97 µM | 3.51 | 3.58 | 2.9 | 3.18 | 3.78
2 | 4440 nM | 4150 nM | 3610 nM | 4010 nM | 4520 nM | C#CCNC1=C2C[C@@H](C)C[C@H](OC)[C@H](O)[C@@H](C)/C=C(\C)[C@H](OC(N)=O)[C@@H](OC)/C=C\C=C(/C)C(=O)NC(=CC1=O)C2=O | 7.88 µM | 1.77 | 1.9 | 2.18 | 1.97 | 1.74
3 | 1030 nM | 1730 nM | 1660 nM | 1120 nM | 970 nM | CO[C@H]1/C=C\C=C(/C)C(=O)NC2=CC(=O)C(NC3CCN(C(C)=O)CC3)=C(C[C@@H](C)C[C@H](OC)[C@H](O)[C@@H](C)/C=C(\C)[C@@H]1OC(N)=O)C2=O | 4.19 µM | 4.07 | 2.42 | 2.52 |  | 4.32
4 | 600 nM | 125 nM | 18 nM |  |  | COc1c(O)cc2cc1C[C@@H](C)C[C@H](OC)[C@H](O)[C@@H](C)/C=C(\C)[C@H](OC(N)=O)[C@@H](OC)CC/C=C(\C)C(=O)N2 [REBLASTATIN] |  | 53 | 54 | 54 |  | 

More lines, now with the values behind:

Row | SMILES | IC50 [1] | IC50 [2] | IC50 [3] | IC50 [4] | IC50 [5] | IC50 [6] | selectivity ratio [7] | Ratio IC50 [8] | selectivity ratio [9] | selectivity ratio [10] | selectivity ratio [11]
5 | CO[C@H]1/C=C\C=C(/C)C(=O)NC2=CC(=O)C(NCC3COCCOCCOCCOCCO3)=C(C[C@@H](C)C[C@H](OC)[C@H](O)[C@@H](C)/C=C(\C)[C@@H]1OC(N)=O)C2=O (stereo partly specified) |  | 2940 nM | 2330 nM | 2990 nM | 2080 nM | 5.71 µM | 2.48 | 1.94 | 2.26 | 1.91 | 2.75
6 | CO[C@H]1/C=C\C=C(/C)C(=O)NC2=CC(=O)C(NCCCCCCO)=C(C[C@@H](C)C[C@H](OC)[C@H](O)[C@@H](C)/C=C(\C)[C@@H]1OC(N)=O)C2=O | 2070 nM | 2190 nM | 2240 nM | 2080 nM | 2770 nM | 5.99 µM | 2.89 | 2.74 | 2.67 | 2.88 | 2.16
7 | CO[C@H]1/C=C\C=C(/C)C(=O)NC2=CC(=O)C(NCc3ccc(CS(N)(=O)=O)cc3)=C(C[C@@H](C)C[C@H](OC)[C@H](O)[C@@H](C)/C=C(\C)[C@@H]1OC(N)=O)C2=O | 2060 nM | 2000 nM | 1780 nM | 2740 nM | 2020 nM | 4.96 µM | 2.41 | 2.48 | 2.9 | 1.81 | 
8 | CO[C@H]1/C=C\C=C(/C)C(=O)NC2=CC(=O)C(NCCOCCO)=C(C[C@@H](C)C[C@H](OC)[C@H](O)[C@@H](C)/C=C(\C)[C@@H]1OC(N)=O)C2=O | 2050 nM | 2510 nM | 1960 nM | 2660 nM | 2150 nM | 4.99 µM | 2.43 | 1.99 | 2.55 | 1.88 | 2.32
9 | CO[C@H]1/C=C\C=C(/C)C(=O)NC2=CC(=O)C(NCCCCO)=C(C[C@@H](C)C[C@H](OC)[C@H](O)[C@@H](C)/C=C(\C)[C@@H]1OC(N)=O)C2=O | 1630 nM | 1590 nM | 1660 nM | 1600 nM | 1630 nM | 3.51 µM | 2.15 | 2.21 | 2.11 | 2.19 | 2.15
